Source: patent US9855230B2 (ViiV Healthcare UK (No. 5) Limited, priority 2014, dated 2018)
pEC50: −log10 of the molar value. Counter-ions that a name gives are not always drawn. Like-named read-outs stand apart in the source and are kept apart here.

Tests used:
[1] = Compound cytotoxicity (CC50), XTT-based colorimetric assay; assay type: cell-based; conditions: human; uninfected MT2 cells, day 4, XTT assay
How it was run: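 Run under the antiviral-assay protocol but without virus. Viability was read on day 4 and CC50 values were derived from the readout.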

[2] = tested on: recombinant NL4-3 virus (nef section replaced with Renilla luciferase gene) in MT-2 cells; experiment: whole plant or invertebrate; assay type: cell-based, HIV
How it was run: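 Nef-deleted NL4-3 reporter virus carrying Renilla luciferase was used to infect MT-2 cells in the presence of serial compound dilutions. After 4-5 days of infection, antiviral activity was quantified from luciferase activity using a live-cell substrate.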

[3] = NL43, luciferase activity in MT-2 cells infected 4-5 days with recombinant NL4-3 virus, read-out: Activity
[4] = NL43, luciferase activity in MT-2 cells infected 4-5 days with recombinant NL4-3 virus, read-out: EC50

Row | Compound | CC50 at 4 day [1] [nM] | pEC50 [2, 3] | pEC50 [2, 4] | pEC50 ([2]; NL43, read-out: Activity) | pEC50 ([2]; NL43)
1 | Cc1ccccc1S(=O)(=O)NC(=O)N[C@@H](Cc1ccccc1)c1nccn1-c1cnn(Cc2ccccc2)c1 [Example 81, (S)-N-((1-(1-(1-benzyl-1H-pyrazol-4-yl)-1H-imidazol-2-yl)-2-phenylethyl)carbamoyl)-2-methylbenzenesulfonamide] | > 100000 | 6.00 to 7.00 | 6.26 | – | –
2 | Cc1ccccc1S(=O)(=O)NC(=O)N[C@@H](Cc1cc(F)cc(F)c1)c1nccn1-c1ccc2c(c1)CCO2 [Example 82, (S)-N-((2-(3,5-difluorophenyl)-1-(1-(2,3-dihydrobenzofuran-5-yl)-1H-imidazol-2-yl)ethyl)carbamoyl)-2-methylbenzenesulfonamide] | > 100000 | 6.00 to 7.00 | – | – | –
3 | COc1ccc(Cn2c(Br)cnc2[C@H](Cc2ccccc2)NC(=O)NS(=O)(=O)c2ccc(C)cc2)cc1 [Example 83, (S)-N-((1-(5-bromo-1-(4-methoxybenzyl)-1H-imidazol-2-yl)-2-phenylethyl)carbamoyl)-4-methylbenzenesulfonamide] | > 33000 | < 6.00 | – | – | –
4 | CCOc1ccc(-c2cccnc2[C@H](Cc2ccccc2)NC(=O)NS(=O)(=O)c2ccccc2C)cc1 [Example 88, (S)-N-((1-(3-(4-ethoxyphenyl)pyridin-2-yl)-2-phenylethyl)carbamoyl)-2-methylbenzenesulfonamide] | > 100000 | 6.00 to 7.00 | – | – | –
5 | COC(=O)Nc1ccc(-c2cccnc2[C@H](Cc2cc(F)cc(F)c2)NC(=O)NS(=O)(=O)c2ccccc2C)cc1 [Example 89, (S)-methyl (4-(2-(2-(3,5-difluorophenyl)-1-(3-(o-tolylsulfonyl)ureido)ethyl)pyridin-3-yl)phenyl)carbamate] | > 100000 | – | – | 6.00 to 7.00 | –
6 | Cc1ccccc1S(=O)(=O)NC(=O)N[C@@H](Cc1cc(F)cc(F)c1)c1ncccc1-c1ccc2ccncc2c1 [Example 90, (S)-N-((2-(3,5-difluorophenyl)-1-(3-(isoquinolin-7-yl)pyridin-2-yl)ethyl)carbamoyl)-2-methylbenzenesulfonamide] | > 100000 | 6.00 to 7.00 | 6.64 | – | –
7 | COC(=O)Nc1ccc(-c2cccnc2[C@H](Cc2cc(F)cc(F)c2)NC(=O)NS(=O)(=O)c2ccccc2Cl)cc1 [Example 91, (S)-methyl (4-(2-(1-(3-((2-chlorophenyl)sulfonyl)ureido)-2-(3,5-difluorophenyl)ethyl)pyridin-3-yl)phenyl)carbamate, TFA] | > 100000 | 6.00 to 7.00 | – | – | –
8 | O=C(N[C@@H](Cc1cc(F)cc(F)c1)c1ncccc1-c1ccc2ccncc2c1)NS(=O)(=O)c1ccccc1Cl [Example 92, (S)-2-chloro-N-((2-(3,5-difluorophenyl)-1-(3-(isoquinolin-7-yl)pyridin-2-yl)ethyl)carbamoyl)benzenesulfonamide, 2 TFA] | > 100000 | 6.00 to 7.00 | – | – | –
9 | CCOc1ccc(-c2cccnc2C(Cc2ccccc2)NC(=O)NS(=O)(=O)c2ccccc2C)cc1 (stereo not shown) [Example 93, N-((1-(3-(4-ethoxyphenyl)pyridin-2-yl)-2-phenylethyl)carbamoyl)-2-methylbenzenesulfonamide] | > 100000 | 6.00 to 7.00 | 6.38 | – | –
10 | CCOc1ccc(-c2cccnc2[C@H](Cc2cc(F)cc(F)c2)NC(=O)NS(=O)(=O)c2ccccc2C)cc1 [Example 94, (S)-N-((2-(3,5-difluorophenyl)-1-(3-(4-ethoxyphenyl)pyridin-2-yl)ethyl)carbamoyl)-2-methylbenzenesulfonamide, TFA] | > 100000 | 6.00 to 7.00 | – | – | –
11 | NC(=O)c1cc(-c2cccnc2[C@H](Cc2cc(F)cc(F)c2)NC(=O)NS(=O)(=O)c2ccccc2Cl)ccc1F [Example 95, (S)-5-(2-(1-(3-((2-chlorophenyl)sulfonyl)ureido)-2-(3,5-difluorophenyl)ethyl)pyridin-3-yl)-2-fluorobenzamide, TFA] | > 100000 | 6.00 to 7.00 | – | – | –
12 | COc1ccc(-c2cccnc2[C@H](Cc2cc(F)cc(F)c2)NC(=O)NS(=O)(=O)c2ccccc2C)cc1 [Example 96, (S)-N-((2-(3,5-difluorophenyl)-1-(3-(4-methoxyphenyl)pyridin-2-yl)ethyl)carbamoyl)-2-methylbenzenesulfonamide, TFA] | > 33000 | 6.00 to 7.00 | 6.23 | – | –
13 | Cc1ccccc1S(=O)(=O)NC(=O)N[C@@H](Cc1cc(F)cc(F)c1)c1ncccc1-c1ccc(F)c(C(N)=O)c1 [Example 97, (S)-5-(2-(2-(3,5-difluorophenyl)-1-(3-(o-tolylsulfonyl)ureido)ethyl)pyridin-3-yl)-2-fluorobenzamide, TFA] | > 100000 | 6.00 to 7.00 | – | – | –
14 | Cc1ccccc1S(=O)(=O)NC(=O)NC(Cc1ccccc1)c1ncccc1-c1ccc(F)c(C(N)=O)c1 (stereo not shown) [Example 98, 2-fluoro-5-(2-(2-phenyl-1-(3-(o-tolylsulfonyl)ureido)ethyl)pyridin-3-yl)benzamide, TFA] | > 33000 | 6.00 to 7.00 | – | – | –
15 | O=C(N[C@H](Cc1cc(F)cc(F)c1)c1ncccc1-c1ccc2ccncc2c1)NS(=O)(=O)c1ccccc1Cl [Example 99, (R)-2-chloro-N-((2-(3,5-difluorophenyl)-1-(3-(isoquinolin-7-yl)pyridin-2-yl)ethyl)carbamoyl)benzenesulfonamide, 2 TFA] | > 33000 | – | – | < 6.00 | 5.97
16 | Cc1ccccc1S(=O)(=O)NC(=O)N[C@@H](Cc1cc(F)cc(F)c1)c1ncccc1-c1cncc(F)c1 [Example 100, (S)-N-((2-(3,5-difluorophenyl)-1-(5′-fluoro-[3,3′-bipyridin]-2-yl)ethyl)carbamoyl)-2-methylbenzenesulfonamide, 2 TFA] | > 100000 | < 6.00 | – | – | –
17 | CC(C)(C)OC(=O)n1cc(-c2cccnc2[C@@H](Cc2cc(F)cc(F)c2)NC(=O)NS(=O)(=O)c2ccccc2Cl)c2ccccc21 [Example 101, (R)-tert-butyl 3-(2-(1-(3-((2-chlorophenyl)sulfonyl)ureido)-2-(3,5-difluorophenyl)ethyl)pyridin-3-yl)-1H-indole-1-carboxylate, TFA] | 36000 | < 6.00 | – | – | –
18 | O=C(N[C@H](Cc1cc(F)cc(F)c1)c1ncccc1-c1c[nH]c2ccccc12)NS(=O)(=O)c1ccccc1Cl [Example 102, (R)-N-((1-(3-(1H-indol-3-yl)pyridin-2-yl)-2-(3,5-difluorophenyl)ethyl)carbamoyl)-2-chlorobenzenesulfonamide, 2 TFA] | > 33000 | < 6.00 | 4.94 | – | –
19 | Cc1ccccc1S(=O)(=O)NC(=O)N[C@H](Cc1cc(F)cc(F)c1)c1ncccc1-c1cncc(F)c1 [Example 103, (R)-N-((2-(3,5-difluorophenyl)-1-(5′-fluoro-[3,3′-bipyridin]-2-yl)ethyl)carbamoyl)-2-methylbenzenesulfonamide, 2 TFA] | > 100000 | < 6.00 | – | – | –
20 | Cc1cc(-c2cccnc2[C@@H](Cc2cc(F)cc(F)c2)NC(=O)NS(=O)(=O)c2ccccc2Cl)c(C)s1 [Example 104, (R)-2-chloro-N-((2-(3,5-difluorophenyl)-1-(3-(2,5-dimethylthiophen-3-yl)pyridin-2-yl)ethyl)carbamoyl)benzenesulfonamide, TFA] | > 33000 | < 6.00 | – | – | –
21 | CCOc1ccc(-c2cccnc2[C@@H](Cc2ccccc2)NC(=O)NS(=O)(=O)c2ccccc2C)cc1 [Example 105, (R)-N-((1-(3-(4-ethoxyphenyl)pyridin-2-yl)-2-phenylethyl)carbamoyl)-2-methylbenzenesulfonamide, TFA] | 75000 | < 6.00 | 4.78 | – | –
22 | O=C(N[C@H](Cc1cc(F)cc(F)c1)c1ncccc1-c1cccc(C(=O)NC2CC2)c1)NS(=O)(=O)c1ccccc1Cl [Example 106, (R)-3-(2-(1-(3-((2-chlorophenyl)sulfonyl)ureido)-2-(3,5-difluorophenyl)ethyl)pyridin-3-yl)-N-cyclopropylbenzamide, TFA] | > 100000 | < 6.00 | – | – | –
23 | Cc1ccccc1S(=O)(=O)NC(=O)N[C@H](Cc1cc(F)cc(F)c1)c1ncccc1Br [Example 107, (R)-N-((1-(3-bromopyridin-2-yl)-2-(3,5-difluorophenyl)ethyl)carbamoyl)-2-methylbenzenesulfonamide, TFA] | > 33000 | < 6.00 | – | – | –
24 | NC(=O)c1cc(-c2cccnc2[C@@H](Cc2cc(F)cc(F)c2)NC(=O)NS(=O)(=O)c2ccccc2Cl)ccc1F [Example 109, (R)-5-(2-(1-(3-((2-chlorophenyl)sulfonyl)ureido)-2-(3,5-difluorophenyl)ethyl)pyridin-3-yl)-2-fluorobenzamide, TFA] | > 100000 | < 6.00 | – | – | –
25 | O=C(N[C@H](Cc1cc(F)cc(F)c1)c1ncccc1-c1cncc(F)c1)NS(=O)(=O)c1ccccc1Cl [Example 110, (R)-2-chloro-N-((2-(3,5-difluorophenyl)-1-(5′-fluoro-[3,3′-bipyridin]-2-yl)ethyl)carbamoyl)benzenesulfonamide, TFA] | > 33000 | < 6.00 | – | – | –
26 | COC(=O)Nc1ccc(-c2cccnc2[C@@H](Cc2ccccc2)NC(=O)NS(=O)(=O)c2ccccc2Cl)cc1 [Example 111, (R)-methyl (4-(2-(1-(3-((2-chlorophenyl)sulfonyl)ureido)-2-phenylethyl)pyridin-3-yl)phenyl)carbamate, TFA] | 82000 | < 6.00 | 4.52 | – | –
27 | Cc1ccccc1S(=O)(=O)NC(=O)N[C@H](Cc1ccccc1)c1ncccc1Br [Example 112, (R)-N-((1-(3-bromopyridin-2-yl)-2-phenylethyl)carbamoyl)-2-methylbenzenesulfonamide, TFA] | > 100000 | < 6.00 | – | – | –
28 | Cc1ccccc1S(=O)(=O)NC(=O)NC(Cc1ccccc1)c1ncccc1Br (stereo not shown) [Example 116, N-((1-(3-bromopyridin-2-yl)-2-phenylethyl)carbamoyl)-2-methylbenzenesulfonamide, TFA] | > 100000 | < 6.00 | – | – | –
